Results on eleven molecules are retold here after US11236059B2, “Targeted cytotoxic ratjadone derivatives and conjugates thereof” (HELMHOLTZ-ZENTRUM FUER INFEKTIONSFORSCHUNG GMBH, priority 2017, dated 2022).

Where two headings read alike, the source gives them in different places. Numbered stars: 1 amine (or outer) side, 2 acyl side, 3 side chain; on linkers, the order of the positions; unused ones are H or OH. Square brackets hold non-standard residues; d marks the D form. Peptide text beside a SMILES is read from it. * marks the point of attachment. Pteroyl = Nc1nc2ncc(CNc3ccc(C(=O)*)cc3)nc2c(=O)[nH]1; Orn(N3) = [N-]=[N+]=NCCC[C@H](N)C(=O)O; γGlu = O=C(O)[C@H](CCC(=O)[*:2])N[*:1] A value given as a limit tells only on which side of the number the result lay.

Series [1] deals with KB 3.1 (DSMZ ACC 158) cells.
Series [2] deals with MCF-7 (DSMZ ACC 115) cells. In words: cells. The series is classed as cell-based. As for the experimental part: (§1) 60 μL of serial dilutions of the test compound were given to 120 μL of suspended cells (50.000/mL) in wells of 96-well plates. After 5 days of incubation growth inhibition (IC50) was determined using an MTT assay.^[64]
Series [3] has as its system SKOV-3 (DSMZ ATCC HTB 77) cells. Put plainly: cells. Type of series: cell-based. On the procedure: as §1
For series [4], the system named is A549 (DSMZ ACC 107) cells. Put plainly: cells. Type of series: cell-based. As for the experimental part:
as §1

The test system of series [5] is KB 3.1 (DSMZ ACC 158) cells. In words: cells. Particulars: Homo sapiens, KB 3-1, 120 h, read-out: IC50 [nM] KB-3.1, growth inhibition, 5 days of incubation, MTT assay. Background: Tetrazolium dyes change colour on reduction, which living cells bring about.
The target of the next series is T1, CRM1 (Homo sapiens, UniProt O14980).
T1 construct: HeLa cells stably expressing a fluorescent translocation biosensor (HeLaRevBio); endogenous in cells; host or cells: HeLa (HeLaRevBio in A7; HeLa in A8)
T1 sequence (O14980 whole entry): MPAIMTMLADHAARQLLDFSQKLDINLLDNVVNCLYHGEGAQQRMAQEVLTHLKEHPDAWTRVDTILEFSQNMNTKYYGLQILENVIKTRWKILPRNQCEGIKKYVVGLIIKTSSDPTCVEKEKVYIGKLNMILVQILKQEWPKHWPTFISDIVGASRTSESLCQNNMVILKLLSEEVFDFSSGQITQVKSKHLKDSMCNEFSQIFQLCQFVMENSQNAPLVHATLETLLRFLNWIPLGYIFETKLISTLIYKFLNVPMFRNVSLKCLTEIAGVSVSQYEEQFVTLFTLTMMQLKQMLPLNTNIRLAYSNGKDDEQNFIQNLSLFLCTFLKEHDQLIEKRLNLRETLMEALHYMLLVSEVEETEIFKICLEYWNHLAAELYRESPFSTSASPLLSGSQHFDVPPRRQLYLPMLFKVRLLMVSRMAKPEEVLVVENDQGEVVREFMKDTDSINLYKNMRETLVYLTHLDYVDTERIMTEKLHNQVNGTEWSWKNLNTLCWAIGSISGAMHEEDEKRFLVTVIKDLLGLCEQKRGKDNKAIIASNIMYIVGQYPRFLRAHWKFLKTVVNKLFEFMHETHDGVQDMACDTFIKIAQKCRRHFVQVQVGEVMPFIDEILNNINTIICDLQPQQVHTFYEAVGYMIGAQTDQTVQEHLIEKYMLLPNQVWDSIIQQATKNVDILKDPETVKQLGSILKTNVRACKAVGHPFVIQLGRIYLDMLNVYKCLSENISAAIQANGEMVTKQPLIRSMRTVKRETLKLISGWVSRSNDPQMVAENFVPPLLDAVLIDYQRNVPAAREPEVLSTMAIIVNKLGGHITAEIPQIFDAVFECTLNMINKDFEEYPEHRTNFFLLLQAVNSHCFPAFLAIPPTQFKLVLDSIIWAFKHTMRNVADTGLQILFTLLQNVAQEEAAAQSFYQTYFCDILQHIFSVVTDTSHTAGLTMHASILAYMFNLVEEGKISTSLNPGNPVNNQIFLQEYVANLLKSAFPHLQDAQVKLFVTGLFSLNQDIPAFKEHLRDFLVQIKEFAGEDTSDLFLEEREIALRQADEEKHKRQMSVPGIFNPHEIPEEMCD
In words: Monitoring export inhibitory activity (translocation biosensor, HeLaRevBio cells). Type of series: cell-based. Particulars: HeLa cells stably expressing translocation biosensor, 1h of incubation; read-out: IC50 [nM] CRM1 (nuclear export inhibition). On the procedure: Export inhibitory ability of compounds was evaluated with the translocation biosensor system. This cellular assay depends on a recombinantly expressed fusion protein consisting of a nuclear localization signal (SV40-NLS), glutathione S-transferase (GST), green fluorescent protein (GFP) and a nuclear export signal (HIV1-RevNES). Due to the two transport signals (NLS/NES), the biosensor is permanently shuttling between nucleus and cytoplasm but resides prominently in the cytoplasm due to a comparatively stronger NES. Export inhibiting compound induce a nuclear accumulation of the GFP-signal^[65,66] Cell lines were maintained as recommended by the American Type Culture Collection in DMEM containing 5% glutamine (Thermo Fisher Scientific, Waltham, USA) supplemented with 10% FBS (Thermo Fisher Scientific, Waltham, USA). For quantifying the nuclear export inhibitory effect, HeLa cells stably expressing a fluorescent translocation biosensor (HeLaRevBio)^[67] were seeded into black 96 well μclear plates (Greiner, Germany). They next day compounds were added covering an appropriate concentration range. After 1h of incubation, cells were fixed in 4% PFA for 10 min and permeabilized with 0.1% Triton X 100 in PBS for 5 min. After washing with PBS nuclei were labeled with Hoechst H33342 (30 min 10 μg/ml). The intracellular distribution of the biosensor-dependent GFP signal was quantitatively evaluated with the high content imaging system ImageXpress MicroXLS (Molecular Devices, Sunnyvale, USA). By using the translocation enhanced application module (Molecular Devices, Sunnyvale, USA) the GFP-intensity was quantified in the cytoplasm and nuclear region. As final readout the difference of Mean Inner and Mean Outer Intensity was calculated. IC50s of nuclear export inhibition were calculated using Sigma Plot with four parameter logistics curve regression (Systat Software GmbH, Erkrath, Germany). […] The following day compounds were added at 125 nM final concentration.

A further series deals with L-929 (DSMZ ACC 2) cells. In words: Cell proliferation assay (MTT), L-929. Type of series: cell-based. To be noted: Mus musculus, L929, 120 h, read-out: IC50 [nM] L-929. On the procedure: as §1
The conditions of series [6]: control compounds; cited from earlier work.
Where [7] appears, read: Homo sapiens, MCF7, 120 h, read-out: IC50 [nM] MCF-7, growth inhibition, 5 days of incubation, MTT assay.
Where [8] appears, read: Homo sapiens, SK-OV-3, 120 h, read-out: IC50 [nM] SK-OV-3, growth inhibition, 5 days of incubation, MTT assay.
The mark [9] stands for this setting: Homo sapiens, A549, 120 h, read-out: IC50 [nM] A-549, growth inhibition, 5 days of incubation, MTT assay.
Where [10] appears, read: read-out: IC50 [nM] KB-3.1 (carrier molecules), growth inhibition, 5 days of incubation, MTT assay.
Setting [11] is: growth inhibition, 5 days of incubation, MTT assay, read-out: IC50 [nM] MCF-7 (carrier molecules).
The mark [12] stands for this setting: growth inhibition, 5 days of incubation, MTT assay, read-out: IC50 [nM] SK-OV-3 (carrier molecules).
[13] abbreviates: growth inhibition, 5 days of incubation, MTT assay, read-out: IC50 [nM] A-549 (carrier molecules).

As usually defined, the IC50 is the concentration at which inhibition is half-maximal. Regarding `CC(C)C[C@H](NC(=O)C(CCCN=[N+]=[N-])NC(=O)[C@H](Cc1ccc(O)cc1)NC(=O)[C@H](CO)NC(=O)[C@H](Cc1c[nH]c2ccccc12)NC(=O)[C@H](Cc1c[nH]cn1)NC(=O)[C@@H]1CCC(=O)N1)C(=O)N[C@@H](CCCNC(=N)N)C(=O)N1CCC[C@H]1C(=O)NCC(N)=O` (stereo in doubt) [D-N3-Orn-LHRH, (S)-1-(((R)-2-((S)-2-((S)-2-((S)-2-((S)-3-(1H-imidazol-4-yl)-2-((S)-5-oxopyrrolidine-2-carboxamido)propanamido)-3-(1H-indol-3-yl)propanamido)-3-hydroxypropanamido)-3-(4-hydroxyphenyl)propanamido)-5-azidopentanoyl)-L-leucyl-L-arginyl)-N-(2-amino-2-oxoethyl)pyrrolidine-2-carboxamide], the IC50 in series [1] came out at 1110 nM; in series [2] it was 47.4 nM; in series [3], 190 nM; in series [4], 318 nM.

In the case of `C/C=C/[C@@H]1O[C@H](C(=O)/C=C/C=C(\C)C[C@@H](C)/C=C(C)\C=C\[C@H]2CC=CC(=O)O2)C[C@@H](O)[C@@H]1C` [16-Oxo-Ratjadone 8, (R)-6-((R,1E,3Z,7E,9E)-11-((2S,4R,5S,6S)-4-hydroxy-5-methyl-6-((E)-prop-1-en-1-yl)tetrahydro-2H-pyran-2-yl)-3,5,7-trimethyl-11-oxoundeca-1,3,7,9-tetraen-1-yl)-5,6-dihydro-2H-pyran-2-one], the IC50 was 2.57 nM in series [5]; 52.5 nM at CRM1; 12.6 nM in the series on L-929 (DSMZ ACC 2) cells; 0.22 nM in series [2] (setting [7]); 0.24 nM in series [3] (setting [8]); 1.76 nM in series [4] (setting [9]).

With `CC(C)C[C@H](NC(=O)[C@@H](CCCN=[N+]=[N-])NC(=O)[C@H](Cc1ccc(O)cc1)NC(=O)[C@H](CO)NC(=O)[C@H](Cc1c[nH]c2ccccc12)NC(=O)[C@H](Cc1c[nH]cn1)NC(=O)[C@@H]1CCC(=O)N1)C(=O)N[C@@H](CCCNC(=N)N)C(=O)N1CCC[C@H]1C(=O)NNC(N)=O` [D-N3-Orn-Goserellin, (S)—N-((6S,9S,12R,15S,18S,21S,24S)-21-((1H-indol-3-yl)methyl)-1-amino-12-(3-azidopropyl)-6-((S)-2-(2-carbamoylhydrazine-1-carbonyl)pyrrolidine-1-carbonyl)-15-(4-hydroxybenzyl)-18-(hydroxymethyl)-25-(1H-imidazol-4-yl)-1-imino-9-isobutyl-8,11,14,17,20,23-hexaoxo-2,7,10,13,16,19,22-heptaazapentacosan-24-yl)-5-oxopyrrolidine-2-carboxamide], the IC50 in series [1] (setting [10]), in series [2] (setting [11]), in series [3] (setting [12]) and in series [4] (setting [13]) was above 663000 nM in each case.

Regarding `[N-]=[N+]=NCCC[C@H](NC(=O)[C@@H](CC(=O)O)NC(=O)[C@@H](CC(=O)O)NC(=O)[C@@H](CC(=O)O)NC(=O)[C@@H](CC(=O)O)NC(=O)[C@@H](CC(=O)O)NC(=O)CC[C@H](NC(=O)c1ccc(NCc2cnc3nc(N)nc(O)c3n2)cc1)C(=O)O)C(=O)O` [FA-N3-5, N^2-(4-(((2-amino-4-hydroxypteridin-6-yl)methyl)amino)benzoyl)-N5-((R)-1-(((R)-1-(((R)-1-(((R)-1-(((R)-1-(((S)-4-azido-1-carboxybutyl)amino)-3-carboxy-1-oxopropan-2-yl)amino)-3-carboxy-1-oxopropan-2-yl)amino)-3-carboxy-1-oxopropan-2-yl)amino)-3-carboxy-1-oxopropan-2-yl)amino)-3-carboxy-1-oxopropan-2-yl)-L-glutamine] ({Pteroyl-γGlu}-[dD][dD][dD][dD][dD][Orn(N3)]-OH), the 50% inhibitory concentration (IC50) in series [1] (setting [10]) and in series [4] (setting [13]) was above 86400 nM in each case.

With `[N-]=[N+]=Nc1ccc(C(=O)NCCCC[C@H](NC(=O)CC[C@H](NC(=O)CC[C@H](NC(=O)c2ccc(NCc3cnc4nc(N)nc(O)c4n3)cc2)C(=O)O)C(=O)O)C(=O)O)cc1` [FA-N3-6, (3S,8S,13S)-1-(4-(((2-amino-4-hydroxypteridin-6-yl)methyl)amino)phenyl)-19-(4-azidophenyl)-1,6,11,19-tetraoxo-2,7,12,18-tetraazanonadecane-3,8,13-tricarboxylic acid], the IC50 in series [1] (setting [10]) and in series [4] (setting [13]) was above 118000 nM in each case.

Consider `[N-]=[N+]=NCCC[C@H](NC(=O)CC[C@H](NC(=O)c1ccc(NCc2cnc3nc(N)nc(O)c3n2)cc1)C(=O)O)C(=O)N[C@H](CCCCN)C(=O)O` [FA-N3-9, ((S)-2-((S)-4-(4-(((2-amino-4-hydroxypteridin-6-yl)methyl)amino)benzamido)-4-carboxybutanamido)-5-azidopentanoyl)-D-lysine], for which the concentration for half-maximal inhibition (IC50) in series [1] (setting [10]) and in series [4] (setting [13]) was above 140000 nM in each case.

Regarding `CC(C)C[C@H](NC(=O)[C@H](CCCN=[N+]=[N-])NC(=O)[C@H](Cc1ccc(O)cc1)NC(=O)[C@H](CO)NC(=O)[C@H](Cc1c[nH]c2ccccc12)NC(=O)[C@H](Cc1c[nH]cn1)NC(=O)[C@@H]1CCC(=O)N1)C(=O)N[C@@H](CCCNC(=N)N)C(=O)N1CCC[C@H]1C(=O)NCC(N)=O` [L-N3-Orn-LHRH, (S)-1-(((S)-2-((S)-2-((S)-2-((S)-2-((S)-3-(1H-imidazol-4-yl)-2-((S)-5-oxopyrrolidine-2-carboxamido)propanamido)-3-(1H-indol-3-yl)propanamido)-3-hydroxypropanamido)-3-(4-hydroxyphenyl)propanamido)-5-azidopentanoyl)-L-leucyl-L-arginyl)-N-(2-amino-2-oxoethyl)pyro-lidine-2-carboxamide], the IC50 in series [1] (setting [10]), in series [2] (setting [11]), in series [3] (setting [12]) and in series [4] (setting [13]) was above 727000 nM throughout.

Take `CC(C)C[C@H](NC(=O)CNC(=O)[C@H](Cc1ccc(O)cc1)NC(=O)[C@H](CO)NC(=O)[C@H](Cc1c[nH]c2ccccc12)NC(=O)[C@H](Cc1c[nH]cn1)NC(=O)[C@@H]1CCC(=O)N1)C(=O)N[C@@H](CCCNC(=N)N)C(=O)N1CCC[C@H]1C(=O)NCC(N)=O` [LHRH, (S)—N-(2-amino-2-oxoethyl)-1-(((S)-5-oxopyrrolidine-2-carbonyl)-L-histidyl-L-tryptophyl-L-seryl-L-tyrosylglycyl-L-leucyl-L-arginyl)pyrrolidine-2-carboxamide, reference compound]: the IC50 in series [1] (setting [10]), in series [2] (setting [11]), in series [3] (setting [12]) and in series [4] (setting [13]) was above 405000 nM in each case.

Turning to `C#CCNC1C[C@@H]([C@H](O)/C=C/C=C(\C)C[C@@H](C)/C=C(C)\C=C\[C@H]2CC=CC(=O)O2)O[C@@H](/C=C/C)[C@H]1C` (stereo partly drawn) [N-Propargyl-19-amino-Ratjadone 42, (6R)-6-((1E,3Z,5R,7E,9E,11R)-11-hydroxy-3,5,7-trimethyl-11-((2S,5S,6S)-5-methyl-6-((E)-prop-1-en-1-yl)-4-(prop-2-yn-1-ylamino)tetrahydro-2H-pyran-2-yl)undeca-1,3,7,9-tetraen-1-yl)-5,6-dihydro-2H-pyran-2-one], the IC50 turned out to be 1.23 nM in series [5]; 18.3 nM at CRM1; 1.31 nM in series [2] (setting [7]); 2.63 nM in series [3] (setting [8]); 1.12 nM in series [4] (setting [9]).

For `CCN(CC)CCOC(=O)c1ccc(N)cc1` [Procaine, procaine], the “stability in mouse plasma” value in series [6] is “unstable”.

In the case of `CCCOc1cc(N)ccc1C(=O)OCCN(CC)CC` [propoxycaine], the “stability in mouse plasma” value in series [6] is given as “unstable”.
